From PMC11790958, “Molecular mechanism of condensin I activation by KIF4A” (The EMBO Journal, 2024)
Residues, ends and D or L forms follow the SMILES beside them. No end group written: not given here. *: point of attachment. 5FAM = O=C1OC2(c3ccc(O)cc3Oc3cc(O)ccc32)c2ccc(C(=O)*)cc21; 5‑FAM = 5-carboxyfluorescein label

What was measured:
NCAPG [1] = biological target: T1, NCAPG (Homo sapiens, UniProt Q9BPX3); assay: Fluorescence polarisation binding assay of 5-FAM peptides with NCAPG; details: FP, 100 nM 5-FAM peptide; Kd not fit
T1 construct: ystrep (Strep tag); made in house; host or cells: Sf9 insect cells (baculovirus)
Procedure: (§1) Fluorescence polarisation binding assays were performed by mixing 100 nM of 5-FAM labelled peptide (Reagents and Tools Table) with indicated concentration of protein in FP buffer (20 mM HEPES pH 8, 150 mM KCl, 2.5 mM MgCl, 5% glycerol, 1 mM DTT) and incubated at room temperature for 15 min before reading the plate with a POLARstar Omega plate reader (BMG). The plate was read three times at 5 min intervals to ensure samples reached equilibrium and three technical replicates were performed, setting up a new plate, with distinct protein aliquot in each case. Data was analysed and plotted in Graphpad Prism and Kd fit using the following: FP=FPmax/2[Pep]([C]+[Pep]+Kd)−([C]+[Pep]+Kd)^2−4.[C].[Pep] Where [C] and [Pep] are the concentration, in μM, of condensin and 5-FAM labelled peptide respectively, FPmax the maximum change in fluorescence polarisation in mP and Kd is the equilibrium dissociation constant. Fit curves are plotted, with standard deviation.

CI NdelH, D2delC = assay: Fluorescence polarisation competition assay, 5-FAM NCAPH peptide and CI NdelH, D2delC; assay type: binding, human; details: 100 nM 5-FAM-NCAPH55-77 with 4 μM CID2ΔC,NΔH
Procedure: FP competition assays were performed for NCAPD2 peptide, using a fixed concentration of 100 nM of F-NCAPD2-C1376-1398 and 6 μM of NCAPG, in the presence or absence of 10 μM KIF4A WT1206-1228 or KIF4A Mut1206-1228 peptide. Similar assays were performed for NCAPH2 peptide, using a fixed concentration of 100 nM of F-N-NCAPH55-77 and 4 μM CI NdelH, D2delC, in the presence or absence of 100 μM of KIF4A WT1206-1228 or KIF4A Mut1206-1228 peptide.
(§2) Background was determined by measuring 100 nM of F-NCAPD2-C1376-1398 or F-N-NCAPH55-77 in the presence of peptide buffer (20 mM HEPES pH 8), KIF4A WT1206-1228 or KIF4A Mut1206-1228 peptide, and subtracted from each measurement. Assay was performed with three technical repeats, setting up a new plate with distinct protein aliquot each time, reading the plate three times to ensure equilibrium. Data analysed and plotted using GraphPad Prism.

[2] = biological target: T2, CID2ΔC (condensin I lacking NCAPD2 C-terminal region) (Homo sapiens, UniProt Q9BPX3); assay: Fluorescence polarisation binding assay of 5-FAM peptides with CID2ΔC; details: FP, 100 nM 5-FAM peptide titrated with CID2ΔC, three technical replicates, ± standard error
T2 construct: made in house; host or cells: Sf9 insect cells (baculovirus)
Procedure: as §1

condensin I [3] = assay: ATPase activity assay (EnzCheck phosphate assay), basal; assay type: biochemical, human; details: for effect of peptide on ATPase activity of CI: 50 nM CI
Procedure: ATPase assays were performed based on the method described previously (Voulgaris and Gligoris, [2019]) using the EnzCheck phosphate assay kit (Invitrogen). Condensin I complexes were used at a final concentration of 50 nM, while HAWK subunits were used at 100 nM and peptides were used at 50 μM. Basal ATPase assays were performed with final salt concentration of 100 mM KCl. DNA titrations were performed with 50 bp dsDNA annealed by heating to 98 degrees and slowly cooling in annealing buffer (10 mM Tris pH 7.5, 50 mM NaCl, 1 mM EDTA).
Plate was read with a POLARstar Omega plate reader (BMG).

NCAPG [4] = biological target: T1, NCAPG; assay: Fluorescence polarisation competition assay, 5-FAM NCAPD2 peptide and NCAPG; assay type: binding; details: 100 nM 5-FAM-NCAPD2_1376-1398, 10 μM competing peptide, mean ± SD
Procedure: […] Similar assays were performed for NCAPH2 peptide, using a fixed concentration of 100 nM of F-N-NCAPH55-77 and 4 μM CI NdelH, D2delC, in the presence or absence of 100 μM of KIF4A WT1206-1228 or KIF4A Mut1206-1228 peptide.
as §2

condensin I [5] = assay: Single-molecule loop extrusion assay, fraction of looped DNA; assay type: biochemical, human; details: for fraction of looped DNA: 0.5 nM condensin I WT, peptide at 1000x
Procedure: (§3) Real-time imaging of the loop extrusion by condensin I was carried out in the aforementioned flow cells as follows. The channel was washed with T50 buffer (40 mM Tris-HCl pH 8.0, 50 mM NaCl, 0.2 mM EDTA), incubated with 1 µM Streptavidin in T50 buffer for 2 min and incubated with 5 mg/ml BSA in T50 buffer for 5 min to further reduce unspecific binding of proteins to the surface. The excess Streptavidin and BSA were washed thoroughly with T50 buffer. Lambda DNA biotinylated at both ends was introduced to the channel at a flow rate of 2 µl/min facilitating surface attachment through the streptavidin–biotin binding. The flow was adjusted and kept constant with a syringe pump attached to the outlet of the flow cell. Excess DNA was washed thoroughly with T50 buffer.
The surface attached DNA molecules were imaged in the imaging buffer (40 mM Tris-HCl pH 7.5, 2 mM Trolox, 30 mM D-glucose, 50 mM Potassium Glutamate (L-Glutamic acid monopotassium salt monohydrate), 2.5 mM MgCl2, 1 mg/ml BSA, 1 mM TCEP, 2.5 mM ATP, 100 nM Sytox Orange, 30 mg/ml Glucose Oxidase (15 U/ml), 20 mg/ml Catalase (1000 U/ml)). The imaging buffer supplied with used condensin I variant was introduced into the channel at a flow rate of 10 µl/min for 100 s and the flow was stopped afterward. For the activity assay comparing condensin I WT and condensin I ΔNCAPG 1 nM of protein, for the activity assay comparing condensin I WT and condensin I WT supplied with KIF4A peptide 0.5 nM of protein and 1000× of the KIF4A peptide, for the analysis of loop extrusion rate 0.75 nM–3 nM of protein (in the case of condensin I WT supplied with KIF4A peptide, correspondingly 1000× of KIF4A peptide) was used.
Region of interests (ROIs) containing a single Lambda DNA molecule were chosen manually and annotated using the tools provided by the Python package Napari. For a single loop extrusion experiment, a field of contains ~100–200 DNA strands. Only the strands that were tethered at both ends from the beginning to the end of the data acquisition were considered for the analysis. Each of the DNA strands were manually analysed whether they form at least one loop during an acquisition time of 1000 s, including the initial 100 s of flow. The “fraction of looped DNA” (Fig. 4B,C) was defined as the ratio of the number of the DNA strands which form at least one loop to the total number of DNA strands. This quantity was taken as a measure for the activity of the protein. […] (For 1 nM condensin I WT 4, for 1 nM condensin I ΔNCAPG 10, for 0.5 nM condensin I WT 3, For 0.5 nM condensin I WT supplied with 0.5 µM KIF4A three independent experiments were performed and analysed.) The error bars in the Fig. 4 are given by the standard deviation of these datasets. […]

condensin I [6] = assay: Single-molecule loop extrusion assay, loop extrusion rate; assay type: biochemical, human; details: without flow, 0.75 nM-3 nM protein, peptide at 1000x
Procedure: as §3, with “The flow was adjusted and kept constant with a syringe pump attached to the outlet of the flow cell. Excess DNA was washed thoroughly with T50 buffer.” left out
ROIs with a DNA strand that formed a loop were cropped and saved in TIFF format for further analysis. […] The kymographs were built by summing the fluorescence intensity for 11 pixels along the line centred around the DNA axis from the median filtered images. […]
For the determination of the loop extrusion rate, each line in the kymograph was split into three regions: “Up”, “Loop” and “Down” (Fig. 4D). For this, first the loop region was determined as follows: Using the “find_peaks” function from the package signal from the Python module scipy local intensity maxima in each line of the kymograph was determined. […] The loop extrusion rate in Fig. 4G was determined by fitting a linear function f(x) = kx + c to the initial 5 s of the loop growth curve. […]

How did the “binding to NCAPG” value (NCAPG [1]) turn out when “5-FAM-FPQNDDEKERLQRRRSRVFDLQF ({5‑FAM}-FPQNDDEKERLQRRRSRVFDLQF) [5-FAM-NCAPH55–77, 5-FAM labelled peptide of NCAPH residues 55-77]” was run?
The value was “low affinity”.

What about the “FP signal without competitor” value (CI NdelH, D2delC) of the same compound?
Its value is 37 ± 7 mP.

And the “FP signal without competitor” value (CI NdelH, D2delC; listed as NCAPH peptide)?
Its value is ~ 35 mP.

`CC[C@H](C)[C@H](NC(=O)[C@@H]1CCCN1C(=O)[C@H](CO)NC(=O)[C@H](CS)NC(=O)CNC(=O)[C@H](CO)NC(=O)[C@H](Cc1ccccc1)NC(=O)[C@H](Cc1ccccc1)NC(=O)[C@H](CO)NC(=O)[C@@H](NC(=O)[C@H](CC(N)=O)NC(=O)[C@H](CO)NC(=O)[C@H](C)NC(=O)[C@H](CC(C)C)NC(=O)[C@H](C)NC(=O)[C@H](CCCNC(=N)N)NC(=O)[C@H](CCCCN)NC(=O)[C@H](CCCCN)NC(=O)[C@H](CCCCN)NC(=O)[C@H](CCCCN)NC(=O)CNC(=O)[C@@H]1CCCN1C(=O)c1ccc2c(c1)C(=O)OC21c2ccc(O)cc2Oc2cc(O)ccc21)[C@@H](C)O)C(=O)N[C@@H](CCC(=O)O)C(=O)O` [5-FAM-KIF4A1206–1228] (5FAM-PGKKKKRALASNTSFFSGCSPIE-OH) was tested. Which Kd [2] did it give?
The Kd was 2800 ± 200 nM.

How did the Fit rates (condensin I [3]; CI D2delC + peptide, replicate 1) turn out when “KIF4Amut peptide (PGKKAAAAGAAATSFFSGCSPIE)” was run?
The Fit rates was 10.29 ATPase per molecule, per minute.

What about the Fit rates (condensin I [3]; CI D2delC + peptide, replicate 2) of the same compound?
The Fit rates was 11.11 ATPase per molecule, per minute.

What about the Fit rates (condensin I [3]; CI D2delC + peptide, replicate 3) of the same compound?
The Fit rates was 10.2 ATPase per molecule, per minute.

And the Fit rates (condensin I [3]; CI D2delC + peptide, replicate 4)?
The Fit rates was 15.62 ATPase per molecule, per minute.

And the Fit rates (condensin I [3]; CI D2delC + peptide, replicate 5)?
Its Fit rates is 27.72 ATPase per molecule, per minute.

And the Fit rates (condensin I [3]; CI NdelH + peptide, replicate 1)?
Its Fit rates is 29.41 ATPase per molecule, per minute.

And the Fit rates (condensin I [3]; CI NdelH + peptide, replicate 2)?
Its Fit rates is 35.68 ATPase per molecule, per minute.

What about the Fit rates (condensin I [3]; CI NdelH + peptide, replicate 3) of the same compound?
Its Fit rates is 31.03 ATPase per molecule, per minute.

What about the Fit rates (condensin I [3]; CI NdelH D2delC + peptide, replicate 1) of the same compound?
Its Fit rates is 28.18 ATPase per molecule, per minute.

What about the Fit rates (condensin I [3]; CI NdelH D2delC + peptide, replicate 2) of the same compound?
Its Fit rates is 29.84 ATPase per molecule, per minute.

And the Fit rates (condensin I [3]; CI NdelH D2delC + peptide, replicate 3)?
Its Fit rates is 39.65 ATPase per molecule, per minute.

What about the Fit rates (condensin I [3]; CIWT + peptide, replicate 1) of the same compound?
The Fit rates was 10.26 ATPase per molecule, per minute.

And the Fit rates (condensin I [3]; CIWT + peptide, replicate 2)?
The Fit rates was 7.215 ATPase per molecule, per minute.

And the Fit rates (condensin I [3]; CIWT + peptide, replicate 3)?
Its Fit rates is 8.551 ATPase per molecule, per minute.

And the Fit rates (condensin I [3]; CIWT + peptide, replicate 4)?
The Fit rates was 10.06 ATPase per molecule, per minute.

And the Fit rates (condensin I [3]; CIWT + peptide, replicate 5)?
The Fit rates was 14.77 ATPase per molecule, per minute.

What about the Fit rates (condensin I [3]; CIWT + peptide, replicate 6) of the same compound?
Its Fit rates is 10.26 ATPase per molecule, per minute.

For PGKKAAAAGAAATSFFSGCSPIE [KIF4A mut], which “FP signal on addition of competing peptide” value (NCAPG [4]) is on record?
The value was “not significantly changed”.

And the “effect of peptide on ATPase activity of CI” value (condensin I [3]; 50 μM peptide, 3 repeats)?
The value was “no increase in activity”.

Which “FP signal on addition of competing peptide” value (CI NdelH, D2delC; 100 μM competing peptide, listed as KIF4a peptide) does the source give for “PGKKKKRALASNTSFFSGCSPIE [KIF4A1206-1228, KIF4A SLiM peptide, residues 1206-1228, unlabelled]” here?
Its value is ~ 20 mP.

And the “effect of peptide on ATPase activity of CI” value (condensin I [3]; 50 μM peptide, 3 repeats)?
The value was “small but significant increase”.

What about the “effect of peptide on ATPase rate of CINΔH” value (condensin I [3]; 50 nM CINΔH, 50 μM peptide, 3 repeats) of the same compound?
Its value is “no additional stimulation”.

And the “effect of peptide on ATPase rate of CINΔH,D3ΔC” value (condensin I [3]; 50 nM CINΔH,D3ΔC, 50 μM peptide, 3 repeats)?
The value was “no additional stimulation”.

And the “fraction of looped DNA” value (condensin I [5]; experiment 1)?
Its value is 0.9481.

What about the “fraction of looped DNA” value (condensin I [5]; experiment 2) of the same compound?
Its value is 1.

And the “fraction of looped DNA” value (condensin I [5]; experiment 3)?
The value was 0.9388.

What about the “tethers having DNA loops” value (condensin I [5]; 0.5 nM condensin I, with or without 0.5 μM KIF4A1206-1228 peptide, 1000 s acquisition, mean of n = 3 experiments) of the same compound?
Its value is ~ 96%.

And the “loop extrusion rate compared to CIWT” value (condensin I [6])?
Its value is “no significant difference”.
